Literature values in paper PMC5742115, “Pharmacophore Modeling and in Silico/in Vitro Screening for Human Cytochrome P450 11B1 and Cytochrome P450 11B2 Inhibitors” (Frontiers in Chemistry, 2017).

System: CYP11B1
Conditions: reported activity, supplementary Table 1; ref Pinto-Bazurco Mendieta et al., 2013; read-out: CYP11B1 IC50; cited from earlier work

Question: For Oc1ccc2ccc(-c3cccnc3)c(F)c2c1 [CHEMBL2420676], which IC50 is on record?
Answer: 1160 nM

Question: With COc1ccc2ccc(-c3cccnc3)c(F)c2c1 [CHEMBL2420675] as the compound, how does the IC50 read?
Answer: 1610 nM

Same assay, conditions: reported activity, supplementary Table 1; ref Roumen et al., 2010; read-out: CYP11B1 IC50; cited from earlier work

Question: For c1ccc(Cn2cncc2-c2ccccc2)cc1 [CHEMBL463582], which IC50 is on record?
Answer: 4.8 nM

Question: With COC(=O)c1cncn1Cc1ccc(C#N)cc1 [CHEMBL591698] as the compound, how does the IC50 read?
Answer: 48 nM

Question: With Cc1ccccc1-c1cncn1Cc1ccc(C#N)cc1 [CHEMBL610513] as the compound, how does the IC50 read?
Answer: 5.7 nM

Question: With COC(=O)CCc1cncn1Cc1ccc(F)cc1 [CHEMBL599622] as the compound, how does the IC50 read?
Answer: 104 nM

Question: Which IC50 does the source give for Cc1cccc(-c2cncn2Cc2ccc(C#N)cc2)c1 [CHEMBL607862] here?
Answer: 6.2 nM

Question: For N#Cc1ccc(Cn2cncc2CCCO)cc1 [CHEMBL598399], which IC50 is on record?
Answer: 48 nM

Question: With N#Cc1ccc(Cn2cncc2C=O)cc1 [CHEMBL611680] as the compound, how does the IC50 read?
Answer: 478 nM

Question: Which IC50 does the source give for Fc1ccc(Cn2cncc2-c2ccccc2)cc1 [CHEMBL610501] here?
Answer: 16 nM

Question: With OCCCc1cncn1Cc1ccc(F)cc1 [CHEMBL591465] as the compound, how does the IC50 read?
Answer: 116 nM

Same assay, conditions: reported activity, supplementary Table 1; ref Ulmschneider et al., 2005a; read-out: CYP11B1 IC50; cited from earlier work

Question: With Fc1cccc2c1CC/C2=C\c1cccnc1 [CHEMBL366490] as the compound, how does the IC50 read?
Answer: 774 nM

Question: With Clc1cccc2c1CC/C2=C\c1cccnc1 [CHEMBL176287] as the compound, how does the IC50 read?
Answer: 304 nM

Question: For COc1ccc2c(c1)CCC/C2=C\c1cccnc1 [CHEMBL362441], which IC50 is on record?
Answer: 903 nM

Question: For Brc1ccc2c(c1)CC/C2=C\c1ccncc1 [CHEMBL366773], which IC50 is on record?
Answer: 2640 nM

Question: Which IC50 does the source give for COc1ccc2c(c1)CC/C2=C\c1cccnc1 [CHEMBL176609] here?
Answer: 1450 nM

Question: Which IC50 does the source give for Clc1ccc2c(c1)CC/C2=C\c1ccncc1 [CHEMBL175554] here?
Answer: 1520 nM

Question: For Clc1ccc2c(c1)CC/C2=C\c1cccnc1 [CHEMBL383807], which IC50 is on record?
Answer: 1470 nM

Question: Which IC50 does the source give for Clc1ccc2c(c1)CC/C2=C/c1cccnc1 [CHEMBL193652] here?
Answer: 270 nM

Same assay, conditions: reported activity, supplementary Table 1; ref Ulmschneider et al., 2005b; read-out: CYP11B1 IC50; cited from earlier work

Question: For Fc1ccc2c(c1)CC/C2=C\c1cncnc1 [CHEMBL195248], which IC50 is on record?
Answer: 27 nM

Question: For C(=C1/CCc2ccccc21)/c1cnc[nH]1 [CHEMBL177468], which IC50 is on record?
Answer: 29.5 nM

Question: With Clc1ccc2c(c1)CC/C2=C/c1c[nH]cn1 [CHEMBL175688] as the compound, how does the IC50 read?
Answer: 19.5 nM

Same assay, conditions: reported activity, supplementary Table 1; ref Voets et al., 2005; read-out: CYP11B1 IC50; cited from earlier work

Question: With COC(=O)c1ccc2cc(-c3cccnc3)ccc2c1 [CHEMBL438802] as the compound, how does the IC50 read?
Answer: 10500 nM

Question: Which IC50 does the source give for COc1ccc2c(Cl)c(-c3cccnc3)ccc2c1Cl [CHEMBL381014] here?
Answer: 4900 nM

Same assay, conditions: reported activity, supplementary Table 1; ref Yin et al., 2012; read-out: CYP11B1 IC50; cited from earlier work

Question: For O=C1CCc2cc(C(c3ccccc3F)n3ccnc3)cc3c2N1CC3 (stereo not drawn) [CHEMBL2163642], which IC50 is on record?
Answer: 40 nM

Question: For C=C(c1cc2c3c(c1)CCN3C(=O)CC2)n1ccnc1 [CHEMBL2163641], which IC50 is on record?
Answer: 19 nM

Question: Which IC50 does the source give for O=C1CCc2cc(C(c3cccc(F)c3)n3ccnc3)cc3c2N1CC3 (stereo not drawn) [CHEMBL2163643] here?
Answer: 29 nM

Same assay, conditions: reported activity, supplementary Table 1; ref Yin et al., 2013; read-out: CYP11B1 IC50; cited from earlier work

Question: Which IC50 does the source give for CC(c1cccnc1)c1cc2c3c(c1)CCN3C(=O)CC2 (stereo not drawn) [CHEMBL2312967] here?
Answer: 4 nM

Question: For C=C(c1ccncc1)c1cc2c3c(c1)CCN3C(=O)CC2 [CHEMBL2312949], which IC50 is on record?
Answer: 1230 nM

Question: With C=C(c1cccnc1)c1cc2c3c(c1)CCN3C(=O)CC2 [CHEMBL2312966] as the compound, how does the IC50 read?
Answer: 41 nM

System: CYP11B2
Conditions: reported activity, supplementary Table 1; ref Pinto-Bazurco Mendieta et al., 2013; read-out: CYP11B2 IC50; cited from earlier work

Question: For Oc1ccc2ccc(-c3cccnc3)c(F)c2c1 [CHEMBL2420676], which IC50 is on record?
Answer: 30 nM

Question: For COc1ccc2ccc(-c3cccnc3)c(F)c2c1 [CHEMBL2420675], which IC50 is on record?
Answer: 17 nM

Same assay, conditions: reported activity, supplementary Table 1; ref Roumen et al., 2010; read-out: CYP11B2 IC50; cited from earlier work

Question: With c1ccc(Cn2cncc2-c2ccccc2)cc1 [CHEMBL463582] as the compound, how does the IC50 read?
Answer: 11 nM

Question: Which IC50 does the source give for COC(=O)c1cncn1Cc1ccc(C#N)cc1 [CHEMBL591698] here?
Answer: 7 nM

Question: With Cc1ccccc1-c1cncn1Cc1ccc(C#N)cc1 [CHEMBL610513] as the compound, how does the IC50 read?
Answer: 3.7 nM

Question: For COC(=O)CCc1cncn1Cc1ccc(F)cc1 [CHEMBL599622], which IC50 is on record?
Answer: 50 nM

Question: With Cc1cccc(-c2cncn2Cc2ccc(C#N)cc2)c1 [CHEMBL607862] as the compound, how does the IC50 read?
Answer: 5.2 nM

Question: With N#Cc1ccc(Cn2cncc2CCCO)cc1 [CHEMBL598399] as the compound, how does the IC50 read?
Answer: 13 nM

Question: With N#Cc1ccc(Cn2cncc2C=O)cc1 [CHEMBL611680] as the compound, how does the IC50 read?
Answer: 62 nM

Question: With Fc1ccc(Cn2cncc2-c2ccccc2)cc1 [CHEMBL610501] as the compound, how does the IC50 read?
Answer: 11 nM

Question: With OCCCc1cncn1Cc1ccc(F)cc1 [CHEMBL591465] as the compound, how does the IC50 read?
Answer: 16 nM

Same assay, conditions: reported activity, supplementary Table 1; ref Ulmschneider et al., 2005a; read-out: CYP11B2 IC50; cited from earlier work

Question: Which IC50 does the source give for Fc1cccc2c1CC/C2=C\c1cccnc1 [CHEMBL366490] here?
Answer: 21 nM

Question: For Clc1cccc2c1CC/C2=C\c1cccnc1 [CHEMBL176287], which IC50 is on record?
Answer: 9 nM

Question: For COc1ccc2c(c1)CCC/C2=C\c1cccnc1 [CHEMBL362441], which IC50 is on record?
Answer: 57 nM

Question: With Brc1ccc2c(c1)CC/C2=C\c1ccncc1 [CHEMBL366773] as the compound, how does the IC50 read?
Answer: 24 nM

Question: For COc1ccc2c(c1)CC/C2=C\c1cccnc1 [CHEMBL176609], which IC50 is on record?
Answer: 34 nM

Question: Which IC50 does the source give for Clc1ccc2c(c1)CC/C2=C\c1ccncc1 [CHEMBL175554] here?
Answer: 18 nM

Question: For Clc1ccc2c(c1)CC/C2=C\c1cccnc1 [CHEMBL383807], which IC50 is on record?
Answer: 26 nM

Question: Which IC50 does the source give for Clc1ccc2c(c1)CC/C2=C/c1cccnc1 [CHEMBL193652] here?
Answer: 73 nM

Same assay, conditions: reported activity, supplementary Table 1; ref Ulmschneider et al., 2005b; read-out: CYP11B2 IC50; cited from earlier work

Question: For Fc1ccc2c(c1)CC/C2=C\c1cncnc1 [CHEMBL195248], which IC50 is on record?
Answer: 6 nM

Question: Which IC50 does the source give for C(=C1/CCc2ccccc21)/c1cnc[nH]1 [CHEMBL177468] here?
Answer: 41 nM

Question: With Clc1ccc2c(c1)CC/C2=C/c1c[nH]cn1 [CHEMBL175688] as the compound, how does the IC50 read?
Answer: 3.7 nM

Same assay, conditions: reported activity, supplementary Table 1; ref Voets et al., 2005; read-out: CYP11B2 IC50; cited from earlier work

Question: For COC(=O)c1ccc2cc(-c3cccnc3)ccc2c1 [CHEMBL438802], which IC50 is on record?
Answer: 72 nM

Question: With COc1ccc2c(Cl)c(-c3cccnc3)ccc2c1Cl [CHEMBL381014] as the compound, how does the IC50 read?
Answer: 28 nM

Same assay, conditions: reported activity, supplementary Table 1; ref Yin et al., 2012; read-out: CYP11B2 IC50; cited from earlier work

Question: For O=C1CCc2cc(C(c3ccccc3F)n3ccnc3)cc3c2N1CC3 (stereo not drawn) [CHEMBL2163642], which IC50 is on record?
Answer: 19 nM

Question: Which IC50 does the source give for C=C(c1cc2c3c(c1)CCN3C(=O)CC2)n1ccnc1 [CHEMBL2163641] here?
Answer: 100 nM

Question: For O=C1CCc2cc(C(c3cccc(F)c3)n3ccnc3)cc3c2N1CC3 (stereo not drawn) [CHEMBL2163643], which IC50 is on record?
Answer: 18 nM

Same assay, conditions: reported activity, supplementary Table 1; ref Yin et al., 2013; read-out: CYP11B2 IC50; cited from earlier work

Question: For CC(c1cccnc1)c1cc2c3c(c1)CCN3C(=O)CC2 (stereo not drawn) [CHEMBL2312967], which IC50 is on record?
Answer: 37 nM

Question: Which IC50 does the source give for C=C(c1ccncc1)c1cc2c3c(c1)CCN3C(=O)CC2 [CHEMBL2312949] here?
Answer: 96 nM

Question: Which IC50 does the source give for C=C(c1cccnc1)c1cc2c3c(c1)CCN3C(=O)CC2 [CHEMBL2312966] here?
Answer: 468 nM
